Assays:
[1] = Liver hepatocyte stability, dog; format: in vitro ADME; settings: dog hepatocytes, 3 μM compound, 60 min, >80% remaining at 60 min denoted >186, read-out: Liver Hepatocyte Stability: t1/2 (min)
Experimental: (§1) Cryopreserved pooled hepatocytes were purchased from a reputable commercial supplier and stored in liquid nitrogen prior to use. Williams E media supplemented with 2 mM L-glutamine and 25 mM HEPES and test compound (final substrate concentration 3 μM; final DMSO concentration 0.25%) are pre-incubated at 37° C. prior to the addition of a suspension of cryopreserved hepatocytes (final cell density 0.5×10^6 viable cells/mL in Williams E media supplemented with 2 mM L-glutamine and 25 mM HEPES) to initiate the reaction. The final incubation volume is 500 μL. Two control compounds were included with each species, alongside appropriate vehicle control. The reactions are stopped by transferring 50 μL of incubate to 100 μL acetonitrile containing internal standard at the appropriate time points. Samples were removed at 6 time points (0, 5, 15, 30, 45 and 60 min) over the course of a 60 min experiment. The termination plates are centrifuged at 2500 rpm at 4° C. for 30 min to precipitate the protein. Following protein precipitation, the sample supernatants were combined in cassettes of up to 4 compounds and analysed using generic LC-MS/MS conditions. From a plot of ln peak area ratio (compound peak area/internal standard peak area) against time, the gradient of the line is determined. Subsequently, half-life (t1/2) and intrinsic clearance (CLint) were calculated.

[2] = Liver hepatocyte stability, human; format: in vitro ADME; settings: human hepatocytes, 3 μM compound, 60 min, >80% remaining at 60 min denoted >186, read-out: Liver Hepatocyte Stability: t1/2 (min)
Experimental: as §1

[3] = Liver hepatocyte stability, rat; format: in vitro ADME; settings: rat hepatocytes, 3 μM compound, 60 min, >80% remaining at 60 min denoted >186, read-out: Liver Hepatocyte Stability: t1/2 (min)
Experimental: as §1

[4] = Liver microsomal stability, human; format: in vitro ADME; settings: pH 7.4; human liver microsomes, 0.5 mg/mL protein, 1 μM compound, NADPH; >80% remaining at 45 min denoted >140; read-out: Liver Microsomal Stability: t1/2 (min); human
Summary of the method: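 Pooled liver microsomes (0.5 mg/mL protein) in 0.1 M phosphate pH 7.4 with 1 μM compound (0.25% DMSO), started with 1 mM NADPH at 37° C; sampled 0-45 min, minus-NADPH control 45 min. LC-MS/MS depletion slope gave t1/2 and CLint.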

[5] = Rat pharmacokinetics in vivo; settings: male Sprague Dawley rats; for AUC(0-t): read-out: PO AUClast
Experimental: The pharmacokinetics of compounds were studied in vivo in rats at doses of 1 mg/kg (IV) and 10 mg/kg (PO).
Male rats (Sprague Dawley) surgically prepared with a jugular vein cannula were treated with experimental compounds via intravenous administration (IV; n=3; 1 mg/kg) or oral administration (PO; n=3; 10 mg/kg). Compounds were formulated as a solution in 40:60 dimethylacetamide:saline (IV administration), a suspension in 1% methyl cellulose (viscosity: 15 cP), 0.1% Tween80 in water (PO administration: Example 3), a solution in 10% DMSO/10% Cremaphor/80% water (PO administration: Examples 4, 11, 21, 23, 25, 26, 32) or a solution in 10% DMSO/20% Cremaphor/70% water (PO administration: Examples 19, 20, 22, 24, 30). […] Serial blood samples were collected via the cannula at 0.02, 0.08, 0.25, 0.5, 1, 2, 4, 6, 8 and 24 h post IV dosing of compound, and at 0.08, 0.25, 0.5, 1, 2, 4, 6, 8 and 24 h post oral dosing of compound, and plasma was prepared by centrifugation and stored immediately at −80° C. Samples were subsequently thawed, prepared for analysis by protein precipitation with acetonitrile, and analysed by tandem LCMS using electrospray ionisation using a matrix-matched calibration curve. PK parameters were calculated from the resulting data.

[6] = Dog pharmacokinetics in vivo; settings: plasma, male Beagle dogs; for concentration at 8 h: read-out: C 8 h; for AUC(0-t): read-out: PO AUClast
Experimental: The pharmacokinetics of compounds of the invention were studied in vivo in dogs.
Male Beagle dogs were treated with experimental compounds via intravenous administration (n=2; 0.5 mg/kg) or oral administration (n=2; 3 mg/kg or 4 mg/kg). Compounds were formulated as a solution in 20% dimethylacetamide/80% (2-hydroxypropyl)-β-cyclodextrin (20% w/v) (IV administration) or a solution in 10% dimethylacetamide/90% (2-hydroxypropyl)-β-cyclodextrin (20% w/v) (PO administration). […] Serial blood samples were collected from the jugular vein at 0.03, 0.08, 0.25, 0.5, 1, 2, 4, 6, 8 and 24 h post IV dosing of compound, and at 0.08, 0.25, 0.5, 1, 2, 4, 6, 8 and 24 h post oral dosing of compound, and plasma was prepared by centrifugation and stored immediately at −80° C. Samples were subsequently thawed, prepared for analysis by protein precipitation with acetonitrile, and analysed by tandem LCMS using electrospray ionisation using a matrix-matched calibration curve. PK parameters were calculated from the resulting data.

[7] = rat, in vivo, IV 1 mg/kg, PO 10 mg/kg
[8] = rat, in vivo, IV 1 mg/kg, read-out: IV t½ (converted)
[9] = rat, in vivo, PO 10 mg/kg, read-out: PO t½ (converted)
[10] = rat, in vivo, doses 1 mg/kg (IV) and 10 mg/kg (PO)
[11] = IV 0.5 mg/kg, read-out: IV t1/2 (converted)
[12] = PO 4 mg/kg, read-out: PO t1/2 (converted)
[13] = 8 h, doses 1 mg/kg (IV) and 10 mg/kg (PO)

SMILES	Vd ([5]; rat, in vivo, IV 1 mg/kg) [L/kg]	clearance ([5]; rat, in vivo, IV 1 mg/kg) [mL/min/kg]	bioavailability [5, 7] [%]	half-life [5, 8] [h]	AUC(0-t) ([5]; rat, in vivo, PO 10 mg/kg) [ng·h/mL]	half-life [5, 9] [h]	Cmax [5, 10] [ng/mL]	half-life [1] [min]	half-life [2] [min]	half-life [3] [min]	concentration at 8 h ([6]; Dose: IV/PO 0.5/4 mg/kg) [ng/mL]	Cmax ([6]; Dose: IV/PO 0.5/4 mg/kg) [ng/mL]	bioavailability ([6]; Dose: IV/PO 0.5/4 mg/kg) [%]	Vd ([6]; IV 0.5 mg/kg) [L/kg]	clearance ([6]; IV 0.5 mg/kg) [mL/min/kg]	half-life [6, 11] [h]	AUC(0-t) ([6]; PO 4 mg/kg) [ng·h/mL]	half-life [6, 12] [h]	half-life [4] [min]	C 8 h [5, 13] [ng/mL]	also measured
CCn1ncc(C(=O)N[C@H]2N=C(c3ccccc3)c3ccccc3NC2=O)c1-c1ccc(NC(C)C)nc1F [Example 3, 1-Ethyl-5-[2-fluoro-6-(propan-2-ylamino)pyridin-3-yl]-N-[(3S)-2-oxo-5-phenyl-1,3-dihydro-1,4-benzodiazepin-3-yl]pyrazole-4-carboxamide]	2.4	13.3	17.1	2.2	2070	4.6	199	–	–	–	–	–	–	–	–	–	–	–	–	–	half-life at 3 µM [1]: 67.4 min; half-life at 3 µM [2]: 52.6 min; half-life at 3 µM [3]: 73.8 min; half-life at 1 µM [4]: 287 min; concentration at 8 h ([5]; rat, in vivo, 8 h, doses 1 mg/kg (IV) and 10 mg/kg (PO), read-out: C 8 h): 108 ng/mL
CCn1ncc(C(=O)N[C@H]2N=C(c3ccccc3)c3ccccc3NC2=O)c1-c1ccc(NC2CC2)nc1F [Example 4, 1-Ethyl-5-[2-fluoro-6-(cyclopropylamino)pyridin-3-yl]-N-[(3S)-2-oxo-5-phenyl-1,3-dihydro-1,4-benzodiazepin-3-yl]pyrazole-4-carboxamide]	2	22.7	124	1.3	9020	2.2	1340	42.1	53.5	47.3	56.1	780	41.5	0.79	10.3	1	2680	2.3	52	470	–
O=C(N[C@H]1N=C(c2ccccc2)c2cccc(F)c2NC1=O)c1cnn(C2CCOCC2)c1-c1ccc(NC2CC2)nc1F [Example 21, 5-[6-(Cyclopropylamino)-2-fluoropyridin-3-yl]-N-[(3S)-9-fluoro-2-oxo-5-phenyl-1,3-dihydro-1,4-benzodiazepin-3-yl]-1-(oxan-4-yl)pyrazole-4-carboxamide]	2.1	18.6	98.2	1.7	8180	3.2	1590	> 186	> 186	284	–	–	–	1.3	4.2	7.6	–	–	170	385	concentration at 8 h ([6]; Dose: IV/PO 0.5/3 mg/kg): 146 ng/mL; Cmax ([6]; Dose: IV/PO 0.5/3 mg/kg): 500 ng/mL; bioavailability ([6]; Dose: IV/PO 0.5/3 mg/kg): 33.6%; AUC(0-t) ([6]; PO 3 mg/kg): 3610 ng·h/mL; half-life ([6]; PO 3 mg/kg, read-out: PO t1/2 (converted)): 5.6 h
CC(C)Nc1ccc(-c2c(C(=O)N[C@H]3N=C(c4ccccc4)c4cccc(F)c4NC3=O)cnn2C2CCOCC2)c(F)n1 [Example 22, N-[(3S)-9-fluoro-2-oxo-5-phenyl-1,3-dihydro-1,4-benzodiazepin-3-yl]-5-[2-fluoro-6-(propan-2-ylamino)pyridin-3-yl]-1-(oxan-4-yl)pyrazole-4-carboxamide]	1.9	10	88.3	2.4	14900	2.6	1440	90.7	207	120	281	692	40.1	1.4	4.1	4.9	6050	6.8	287	734	–
CCNc1ccc(-c2c(C(=O)N[C@H]3N=C(c4ccccc4)c4cccc(F)c4NC3=O)cnn2C2CCOCC2)c(F)n1 [Example 24, 5-[6-(Ethylamino)-2-fluoropyridin-3-yl]-N-[(3S)-9-fluoro-2-oxo-5-phenyl-1,3-dihydro-1,4-benzodiazepin-3-yl]-1-(oxan-4-yl)pyrazole-4-carboxamide]	1.4	15	50	1.3	5540	3.4	791	139	162	228	67	450	22.7	0.86	6.5	1.5	2300	2.4	> 140	182	–

Reference: patent publication US20220409629A1, “BENZODIAZEPINE DERIVATIVES FOR TREATING A RESPIRATORY SYNCYTIAL VIRUS (RSV) INFECTION” (priority 2019, published 2022)
